What was measured:
dengue virus type 2 = experiment: Functional assay to measure dose dependent changes in antiviral-drug inhibitory efficacy against Dengue virus type 2 New Guinea C in Vero E6 miRFP670 cells (cotreated with P-gp inhibitor, CP100356). Cells are treated with antiviral candidates that are serially diluted, following infection, cells are fixed. EC50 is reported via analysis of fluorescence intensity using high-content imager. The …; format: organism-based, Chlorocebus sabaeus, Vero C1008; conditions: Dengue virus; for EC90: P-gp concentration 500 nM, P-gp inhibitor CP100356
Zika virus = experiment: Functional CPE-based assay to measure dose dependent changes in antiviral-drug inhibitory efficacy against Zika virus MR766 in Vero E6 miRFP670 cells (cotreated with P-gp inhibitor, CP100356). Cells are treated with antiviral candidates that are serially diluted. EC50 is reported via analysis of MTS assay as a readout of CPE. The assay has been performed by KU Leuven.; format: organism-based, Chlorocebus sabaeus, Vero C1008; conditions: Zika virus

Row | Structure (SMILES) | EC50 (dengue virus type 2; Vero C1008) [µM] | EC50 (Zika virus; Vero C1008) [µM] | further results
1 | O=C(Nc1ccc2c(c1)CNC2)c1cc(F)cc(-c2cn[nH]c2)c1 | 1.11 | > 50 | EC90 (dengue virus type 2; Vero C1008, Baseline response 0 %, EC90 CI (lower) 0.042 uM, EC90 CI (upper) 0.221 uM, Hill slope -0.898, Maximum measured 65.167 %, Maximum response 100 %, Minimum measured 5.409 %, R squared 0.901): 12.8 µM; EC90 (Zika virus; Vero C1008, Baseline response 0 %, Hill slope 1.1, Maximum measured 49.9 %, Maximum response 100 %, Minimum measured 5.357 %, P-gp concentration 500 nM, R squared 0.912, P-gp inhibitor CP100356): > 50 µM
2 | N#Cc1cccc(-c2nc3c(C(=O)Nc4ccc5c(c4)CNC5)cc(F)cc3[nH]2)c1 | > 6.25 | > 50 | EC90 (dengue virus type 2; Vero C1008, Baseline response 0 %, Hill slope 1.695, Maximum measured 158.102 %, Maximum response 100 %, Minimum measured 53.067 %, R squared 0.44): > 6.25 µM; EC90 (Zika virus; Vero C1008, Baseline response 0 %, Hill slope 0.393, Maximum measured 36.291 %, Maximum response 100 %, Minimum measured 0.187 %, P-gp concentration 500 nM, R squared 0.325, P-gp inhibitor CP100356): > 50 µM
3 | O=C(Nc1cc2c(c(-c3c[nH]c(=O)c(F)c3)c1)CNC2)c1cc(F)cc2[nH]ncc12 | > 25 | > 50 | EC90 (dengue virus type 2; Vero C1008, Maximum measured 138.883 %, Minimum measured 79.511 %): > 25 µM; EC90 (Zika virus; Vero C1008, Baseline response 0 %, Hill slope 0.515, Maximum measured 9.878 %, Maximum response 100 %, Minimum measured 0.944 %, P-gp concentration 500 nM, R squared 0.362, P-gp inhibitor CP100356): > 50 µM
4 | COc1cccc(-c2nc3c(C(=O)Nc4ccc5c(c4)CNC5)cc(F)cc3[nH]2)c1 | > 50 | > 50 | EC90 (dengue virus type 2; Vero C1008, Maximum measured 205.039 %, Minimum measured 143.371 %): > 50 µM; EC90 (Zika virus; Vero C1008, Baseline response 0 %, Hill slope -1.02, Maximum measured 11.362 %, Maximum response 100 %, Minimum measured -3.329 %, P-gp concentration 500 nM, R squared 0.203, P-gp inhibitor CP100356): > 50 µM
5 | CO[C@H]1C[C@H](n2ncc3c(C(=O)Nc4ccc5c(c4)CNC5)cc(Cl)cc32)C1 | > 12.5 | 3.1 | EC90 (dengue virus type 2; Vero C1008, Baseline response 0 %, Hill slope 0.569, Maximum measured 146.378 %, Maximum response 100 %, Minimum measured 74.589 %, R squared 0.043): > 12.5 µM; EC90 (Zika virus; Vero C1008): 3.53 µM
6 | COc1ccccc1-c1nc2c(C(=O)Nc3ccc4c(c3)CNC4)cc(F)cc2[nH]1 | > 12.5 | > 50 | EC90 (dengue virus type 2; Vero C1008, Baseline response 0 %, Hill slope -1.284, Maximum measured 263.72 %, Maximum response 267.598 %, Minimum measured 165.032 %, R squared 0.972): > 12.5 µM; EC90 (Zika virus; Vero C1008, Baseline response 0 %, Hill slope 1.211, Maximum measured 45.367 %, Maximum response 100 %, Minimum measured -3.491 %, P-gp concentration 500 nM, R squared 0.953, P-gp inhibitor CP100356): > 50 µM
7 | O=C(Nc1ccc2c(c1)CNC2)c1cc(F)cc2[nH]c(-c3cccc(F)c3)nc12 | > 1.56 | > 50 | EC90 (dengue virus type 2; Vero C1008, Baseline response 0 %, Hill slope -0.435, Maximum measured 206.615 %, Maximum response 236.845 %, Minimum measured 186.851 %, R squared 0.182): > 1.56 µM; EC90 (Zika virus; Vero C1008, Baseline response 0 %, Hill slope 2.278, Maximum measured 12.458 %, Maximum response 100 %, Minimum measured -7.568 %, P-gp concentration 500 nM, R squared 0.376, P-gp inhibitor CP100356): > 50 µM
8 | N#Cc1cc2c(cc1NC(=O)c1cc(F)cc3[nH]ncc13)CNC2 | > 25 | 2.09 | EC90 (dengue virus type 2; Vero C1008, Maximum measured 167.339 %, Minimum measured 79.168 %): > 25 µM; EC90 (Zika virus; Vero C1008, Baseline response 0 %, EC90 CI (lower) 2.64 uM, EC90 CI (upper) 7.54 uM, Hill slope 2.894, Maximum measured 123.396 %, Maximum response 100 %, Minimum measured 1.493 %, P-gp concentration 500 nM, R squared 0.93, P-gp inhibitor CP100356): 4.46 µM
9 | Cc1cccc(-c2nc3c(C(=O)Nc4ccc5c(c4)CNC5)cc(F)cc3[nH]2)c1 | > 50 | > 50 | EC90 (dengue virus type 2; Vero C1008, Maximum measured 188.282 %, Minimum measured 128.713 %): > 50 µM; EC90 (Zika virus; Vero C1008, Maximum measured 1.316 %, Minimum measured -3.721 %, P-gp concentration 500 nM, P-gp inhibitor CP100356): > 50 µM
10 | C=Cc1cc2c(cc1NC(=O)c1cc(F)cc3[nH]ncc13)CNC2 | > 6.25 | 5.17 | EC90 (dengue virus type 2; Vero C1008, Maximum measured 131.207 %, Minimum measured 113.262 %): > 6.25 µM; EC90 (Zika virus; Vero C1008, Baseline response 0 %, EC90 CI (lower) 8.54 uM, EC90 CI (upper) 30.093 uM, Hill slope 1.942, Maximum measured 120.806 %, Maximum response 100 %, Minimum measured 10.445 %, P-gp concentration 500 nM, R squared 0.918, P-gp inhibitor CP100356): 16 µM
11 | O=C(Nc1ccc2c(c1)CNC2)c1ccc2c(C3=CCNCC3)csc2c1 | 1.33 | 9.31 | EC90 (dengue virus type 2; Vero C1008, Baseline response 0 %, Hill slope -1.321, Maximum measured 86.909 %, Maximum response 100 %, Minimum measured 20.548 %, R squared 0.914): > 6.25 µM; EC90 (Zika virus; Vero C1008, Baseline response 0 %, Hill slope 1.989, Maximum measured 64.405 %, Maximum response 100 %, Minimum measured 3.372 %, P-gp concentration 500 nM, R squared 0.951, P-gp inhibitor CP100356): > 12.5 µM
12 | Cc1ccc(-c2nc3c(C(=O)Nc4ccc5c(c4)CNC5)cc(F)cc3[nH]2)cc1 | > 50 | > 50 | EC90 (dengue virus type 2; Vero C1008, Baseline response 0 %, Hill slope -1.93, Maximum measured 263.734 %, Maximum response 225.04 %, Minimum measured 80.528 %, R squared 0.789): > 50 µM; EC90 (Zika virus; Vero C1008, Baseline response 0 %, Hill slope 1.828, Maximum measured 11.314 %, Maximum response 100 %, Minimum measured -7.525 %, P-gp concentration 500 nM, R squared 0.394, P-gp inhibitor CP100356): > 50 µM
13 | O=C(Nc1ccc2c(c1)CNC2)c1cc(Cl)cc2c1cnn2C[C@H]1CCCO1 | > 50 | 6.36 | EC90 (dengue virus type 2; Vero C1008, Baseline response 0 %, Hill slope 0.931, Maximum measured 200.765 %, Maximum response 100 %, Minimum measured 63.333 %, R squared 0.208): > 50 µM; EC90 (Zika virus; Vero C1008, Baseline response 0 %, Hill slope 36.566, Maximum measured 122.907 %, Maximum response 100 %, Minimum measured 2.24 %, P-gp concentration 500 nM, R squared 0.938, P-gp inhibitor CP100356): 6.75 µM
14 | O=C(Nc1ccc2c(c1)CNC2)c1cc(F)cc2[nH]c(-c3ccc(F)cc3)nc12 | > 50 | > 50 | EC90 (dengue virus type 2; Vero C1008, Maximum measured 176.058 %, Minimum measured 96.502 %): > 50 µM; EC90 (Zika virus; Vero C1008, Baseline response 0 %, Hill slope 2.324, Maximum measured 27.659 %, Maximum response 100 %, Minimum measured -7.999 %, P-gp concentration 500 nM, R squared 0.219, P-gp inhibitor CP100356): > 50 µM
15 | COc1cc(-c2cc(NC(=O)c3cc(F)cc4[nH]ncc34)cc3c2CNC3)ccn1 | > 50 | 3.92 | EC90 (dengue virus type 2; Vero C1008, Baseline response 0 %, Hill slope 0.386, Maximum measured 113.678 %, Maximum response 100 %, Minimum measured 63.234 %, R squared 0.283): > 50 µM; EC90 (Zika virus; Vero C1008, Baseline response 0 %, EC90 CI (lower) 3.129 uM, EC90 CI (upper) 14.718 uM, Hill slope 4.011, Maximum measured 135.364 %, Maximum response 100 %, Minimum measured -0.295 %, P-gp concentration 500 nM, R squared 0.873, P-gp inhibitor CP100356): 6.79 µM
16 | CC(C)n1cc2c(C(=O)Nc3ccc4c(c3)CNC4)cc(Cl)cc2n1 | > 12.5 | 1.67 | EC90 (dengue virus type 2; Vero C1008, Maximum measured 192.332 %, Minimum measured 77.026 %): > 12.5 µM; EC90 (Zika virus; Vero C1008): 1.93 µM
17 | O=C(Nc1cc2c(c(C3=CCS(=O)(=O)CC3)c1)CNC2)c1cc(F)cc2[nH]ncc12 | > 25 | > 50 | EC90 (dengue virus type 2; Vero C1008, Maximum measured 118.058 %, Minimum measured 98.99 %): > 25 µM; EC90 (Zika virus; Vero C1008, Maximum measured 6.141 %, Minimum measured -2.074 %, P-gp concentration 500 nM, P-gp inhibitor CP100356): > 50 µM
18 | O=C(Nc1ccc2c(c1)CNC2)c1cc(Cl)cc2c1cnn2C1CCC1 | > 6.25 | 1.26 | EC90 (dengue virus type 2; Vero C1008, Maximum measured 167.025 %, Minimum measured 94.774 %): > 6.25 µM; EC90 (Zika virus; Vero C1008, Baseline response 0 %, EC90 CI (lower) 1.13 uM, EC90 CI (upper) 4.462 uM, Hill slope 3.792, Maximum measured 124.257 %, Maximum response 100 %, Minimum measured 13.491 %, P-gp concentration 500 nM, R squared 0.856, P-gp inhibitor CP100356): 2.25 µM
19 | O=C(Nc1cc2c(c(C3=CCOCC3)c1)CNC2)c1cc(F)cc2[nH]ncc12 | > 25 | 7.33 | EC90 (dengue virus type 2; Vero C1008, Maximum measured 218.898 %, Minimum measured 80.524 %): > 25 µM; EC90 (Zika virus; Vero C1008, Baseline response 0 %, EC90 CI (lower) 5.793 uM, EC90 CI (upper) 20.937 uM, Hill slope 5.397, Maximum measured 131.01 %, Maximum response 100 %, Minimum measured -1.308 %, P-gp concentration 500 nM, R squared 0.937, P-gp inhibitor CP100356): 11 µM
20 | N[C@H]1Cc2ccc(NC(=O)c3cccc4c3CC(=O)N4)cc2C1 | > 50 | > 50 | EC90 (dengue virus type 2; Vero C1008, Maximum measured 137.168 %, Minimum measured 87.065 %): > 50 µM; EC90 (Zika virus; Vero C1008, Maximum measured 1.094 %, Minimum measured -1.183 %, P-gp concentration 500 nM, P-gp inhibitor CP100356): > 50 µM

Source: ChEMBL document CHEMBL5661943, “ASAP - In vitro antiviral effect” (2024)
